The values that follow come from ChEMBL document CHEMBL1201862, “PubChem BioAssay data set” (2004).

The nature of assay [1]: cytotoxicity toward NIH3T3 fibroblasts, dose response, counter-screen, cell-based, ATP luminescence, mouse fibroblasts (AID 2010).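 Further: cells exposed to compound for about 90 hours before reading.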 Type of assay: functional. In general terms: Counterscreens check selectivity or assay interference.
A short description of assay [2]: inhibitors of intracellular T. cruzi replication, confirmation, NIH3T3 host cells, beta-gal luminescence (AID 2044).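 Further: intracellular parasites grown in NIH/3T3 mouse fibroblasts as host cells; luminescent beta-galactosidase reporter signal from transgenic T. cruzi replicating inside host cells; inhibitors lower the luminescence signal.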 Type of assay: functional, cell-based.
A further assay deals with INS1. Nature of the assay: beta cell apoptosis inhibitors, cytokine rescue, dose response, luminescence, retest (AID 449756).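 Further: cell death triggered by IL-1 beta plus TNF-alpha plus IFN-gamma mixture; protective hits raise ATP signal compared with cytokine alone wells.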 It is filed as functional, cell-based. Particulars: Rattus norvegicus.
The nature of assay [3]: HEp-2 cell cytotoxicity, dose response, cytotoxicity control for RSV inhibitor project, HTS (AID 2410). Particulars: human respiratory syncytial virus. It is filed as functional.
Assay [4] can be described thus: Luminescence Cell-Based Dose Response HTS to Identify Inhibitors of 5'UTR Stem-Loop Driven Prion Protein mRNA Translation in H4 Neuroglioblastoma Cells. [Related pubchem assays: 1827 (Project Summary), 1813 (Primary HTS)]. Type of assay: functional.
Assay [5] can be described thus: inhibitors of firefly luciferase expression or activity, dose response, H4 neuroglioma cells, luminescence (AID 1990). It is filed as functional, cell-based.
A short description of assay [6]: inhibitors of SNCA 5'UTR-driven reporter translation, confirmation, H4 neuroglioma cells, luminescence (AID 1988). It is filed as functional, cell-based.
Another assay has as its target T1, Cytochrome P450 1A2 (Homo sapiens, UniProt P05177).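 Further: PubChem cytochrome P450 panel assay, CYP1A2 panel member.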
T1 sequence (P05177 whole entry): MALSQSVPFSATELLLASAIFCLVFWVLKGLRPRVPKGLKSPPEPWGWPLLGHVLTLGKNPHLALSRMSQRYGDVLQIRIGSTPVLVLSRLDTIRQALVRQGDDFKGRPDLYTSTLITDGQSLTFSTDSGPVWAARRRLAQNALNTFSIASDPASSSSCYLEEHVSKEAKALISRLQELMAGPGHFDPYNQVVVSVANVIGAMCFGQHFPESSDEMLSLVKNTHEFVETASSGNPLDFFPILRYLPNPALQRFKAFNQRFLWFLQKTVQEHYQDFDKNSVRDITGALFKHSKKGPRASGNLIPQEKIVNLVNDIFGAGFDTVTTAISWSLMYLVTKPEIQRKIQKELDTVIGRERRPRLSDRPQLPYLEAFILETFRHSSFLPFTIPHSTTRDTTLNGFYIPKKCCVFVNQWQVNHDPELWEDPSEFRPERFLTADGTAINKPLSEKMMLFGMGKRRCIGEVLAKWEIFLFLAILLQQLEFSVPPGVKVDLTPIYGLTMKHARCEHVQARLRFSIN

The source made the active and inactive calls. For most assays here, no stated cut-off is given here; in the data, actives have a measured EC50 and inactives only a lower limit.

What is called EC50 is the concentration needed to bring the measured effect to its halfway point. As to `Cc1ccc(-c2nnc(N3CCCCCC3)c3ccccc23)cc1`, the EC50 in assay [1] was > 60 µM (not active); in assay [2], 1.19 µM (active).

A word on the AC50: it is the concentration giving half of the maximal activity seen. Regarding `Cc1ccc(C2CC(c3cccc(C)c3)n3nc(N)nc3N2)cc1` (stereo not drawn), the AC50 in the assay on INS1 was > 260 µM (inactive).

As usually defined, the CC50 is the concentration at which the toxic effect on the cells reaches its halfway point. Regarding `Cc1ccc(N2CCN(C(=O)c3nn(C)c4c3CS(=O)(=O)c3ccccc3-4)CC2)c(C)c1`, in assay [3], the CC50 was 10.3 µM (active).

With `CCC(C)c1ccc(-c2cc(C(=O)OCC(=O)Nc3cc(C)on3)c3ccccc3n2)cc1` (stereo not drawn), the CC50 in assay [3] was 43.8 µM (active).

Regarding `COc1ccccc1N1CCN(S(=O)(=O)CCNC(=O)C2CC(=O)N(c3ccccc3)C2)CC1` (stereo not drawn), the EC50 was > 120 µM (not active) in assay [4], > 120 µM (not active) in assay [5] and 114 µM (active) in assay [6].

Consider `Cc1nc2ccccc2c(=O)n1-c1cc([N+](=O)[O-])cc([N+](=O)[O-])c1`, for which the figures for the EC50 in assay [1] and in assay [2] were > 60 µM (not active) and 1.98 µM (active), respectively.

`COC(=O)C1CCC(C)(C(=O)Nc2ccccc2)C1(C)C` (stereo not drawn): the AC50 at Cytochrome P450 1A2 is 15.8 µM (inconclusive).

As to `CN(C)CCN(C(=O)c1ccc(S(=O)(=O)N(C)c2ccccc2)cc1)c1nc2ccc(Cl)cc2s1`, the EC50 was > 15 µM (not active) in assay [1] and 0.117 µM (active) in assay [2].

Regarding `CC(=O)N1CCc2cc(S(=O)(=O)NCCC3=CCCCC3)ccc21`, the AC50 with INS1 is 4.54 µM (active).

For the compound `Cc1ccccc1C(=O)NC(=S)Nc1sc2c(c1C#N)CCCC2`, the CC50 in assay [3] was 25.9 µM (active).

`O=C(/C=C/c1ccccc1)NC(NC(=S)Nc1ccc(Cl)cc1Cl)C(Cl)(Cl)Cl` (stereo not drawn): the EC50 in assay [1] was > 60 µM (not active); in assay [2], 2.02 µM (active).

For `CSCc1cc(N2CCOCC2)nc(SCc2ccc(Cl)c(Cl)c2)n1`, in assay [3], the CC50 was 26.1 µM (active).

Take `COc1ccc(-c2cc(C(F)F)n3ncc(C(=O)N4CCCCC4)c3n2)cc1`: the values for the EC50 in assay [1] and in assay [2] were > 60 µM (not active) and 1.25 µM (active), respectively. Further, the CC50 in assay [3] was > 50 µM (active).

For the compound `CCOC(=O)C1(CCOc2ccccc2)CCN(Cc2ccc3nonc3c2)CC1`, the EC50 in assay [1] was > 60 µM (not active); in assay [2] it was 2.61 µM (active).

In the case of `CCC(C)Sc1nc2c(c(=O)[nH]c(=O)n2C)n1C` (stereo not drawn), the CC50 in assay [3] was 20.8 µM (active).

On to `Cc1ccc(Cn2nnc3c(O)nc(C4CCN(S(=O)(=O)Cc5ccccc5)CC4)nc32)cc1`, for which, in assay [3], the CC50 was 26.8 µM (active).

`CN1C/C(=C/c2ccsc2)C(=O)/C(=C/c2ccsc2)C1`: the EC50 in assay [1] was > 30 µM (not active); in assay [2], 0.156 µM (active).

Regarding `COc1ccc(-c2csc3ncnc(N4CCN(S(=O)(=O)c5ccc(C)c(C)c5)CC4)c23)cc1`, the EC50 in assay [1] is 24.1 µM (active); in assay [2], 2.05 µM (active).

On to `CCCc1cc(NCCCCO)n2c(nc3ccccc32)c1C#N`, for which the EC50 is > 120 µM (not active) in assay [4], 25.6 µM (active) in assay [5] and > 120 µM (not active) in assay [6].

In the case of `Cc1cc(Cl)ccc1OCCCC(=O)NC1CCN(C)CC1`, the EC50 in assay [1] is > 60 µM (not active); in assay [2], 0.164 µM (active).

Take `Nc1ccccc1C(=O)Nc1ccc(Cl)cc1Cl`: the CC50 in assay [3] was 35.7 µM (active).

Regarding `COc1ccc(C2=NN(C(=O)COc3ncnc4ccccc34)C(c3ccco3)C2)cc1` (stereo not drawn), the EC50 in assay [4] was > 120 µM (not active); in assay [5] it was 13.8 µM (active); in assay [6], > 60 µM (not active).

Regarding `CCCOc1ccc([N+](=O)[O-])cc1C1NC(S)=NC(c2ccccc2)=C1C(=O)OCC` (stereo not drawn), the CC50 in assay [3] was 40.5 µM (active).

Turning to `COc1ccc(NC(=O)/C(C#N)=C/c2cc(C)n(-c3ccc(N4CCOCC4)c([N+](=O)[O-])c3)c2C)cc1`, the EC50 in assay [4] is 35.2 µM (active); in assay [5] it was > 120 µM (not active); in assay [6], > 120 µM (not active).

On to `COc1ccccc1Cn1nnc2c(O)nc(C3CCN(C(=O)c4ccccc4Cl)CC3)nc21`, for which the EC50 in assay [4] is > 120 µM (not active); in assay [5], > 120 µM (not active); in assay [6], 68.6 µM (active).

For `COc1ccccc1NS(=O)(=O)c1cccc(NC(=O)c2sc3ccccc3c2Cl)c1`, the EC50 in assay [1] was > 60 µM (not active); in assay [2] it was 1.19 µM (active).

Take `CC(=O)N(C(C)=O)c1[nH]cc2c3ccccc3nc-2c1C#N`: the results for the EC50 in assay [4], in assay [5] and in assay [6] were 12.9 µM (active), 9.63 µM (active) and 15.7 µM (active), respectively.

As for `CCCN1CCC(=NNc2ccc(S(=O)(=O)N(CC)CC)cc2[N+](=O)[O-])CC1`, the EC50 in assay [4] is > 120 µM (not active); in assay [5] it was 16.5 µM (active); in assay [6] it was 8.05 µM (active).

Take `Cc1ccn2cc(-c3cccc(S(=O)(=O)N4CC(C)OC(C)C4)c3)nc2c1` (stereo not drawn): in assay [3], the CC50 is > 50 µM (active).

For the compound `COC(=O)[C@@]1(Cc2ccccc2)[C@H]2c3cc(C(=O)N4CCCC4)[nH]c3C[C@H]2CN1C(=O)c1ccccc1`, on Cytochrome P450 1A2, the AC50 is 1.26 µM (inconclusive).

For `CCOC(=O)c1cccc(-c2c(-c3ccccc3)ncc3cc(OC)c(OC)cc23)c1`, the CC50 in assay [3] is 20.4 µM (active).

As to `CCCCN1CC(=O)C(c2nc(-c3ccc(Cl)cc3)cs2)=C1N`, the EC50 in assay [4], in assay [5] and in assay [6] was > 120 µM (not active) in each case.

For the compound `O=C(NCc1ccccc1)c1ccc(C(=O)N(C2CCCCC2)C2CCCCC2)cc1`, the EC50 in assay [1] was > 60 µM (inconclusive); in assay [2], 2.27 µM (active).

`Cn1c(=O)[nH]c(=O)c2c1nc(N1CCCCCC1)n2Cc1cccc2ccccc12`: the results for the EC50 in assay [4], in assay [5] and in assay [6] were > 120 µM (not active), 24.4 µM (active) and 45 µM (active), respectively.

On to `Cc1cc(C(=O)CSc2nc3ccccc3c(=O)n2C)c(C)n1Cc1ccc2c(c1)OCO2`, for which the AC50 in the assay with INS1 was 1.41 µM (active).

Turning to `CC(C)(C)c1ccc(C(=O)Nc2ccc(S(=O)(=O)Nc3cnc4ccccc4n3)cc2)cc1`, the CC50 in assay [3] was 8.3 µM (active).

Take `COC(=O)c1ccc(CSc2ccc3nnc(-c4ccccc4)n3n2)o1`: the EC50 in assay [4] was 15.7 µM (active); in assay [5], > 120 µM (not active); in assay [6], 16.6 µM (active).

For `Cc1ccc(-c2cc(C(F)F)n3ncc(C(=O)N4CCc5ccccc5C4)c3n2)cc1`, the EC50 in assay [1] is > 60 µM (not active); in assay [2], 1.72 µM (active).

Turning to `CCOc1cc(/C=C(\C#N)C(=O)Nc2cccc(C(=O)O)c2)ccc1OCc1ccccc1Cl`, the CC50 in assay [3] was 29.9 µM (active).

Regarding `OC[C@H]1O[C@H](n2cnc3c(NC4CCCC4)nc(Cl)nc32)[C@@H](O)[C@@H]1O`, on Cytochrome P450 1A2, the AC50 is 39.8 µM (inconclusive).

Regarding `COc1ccccc1N1CCN(C(CNC(=O)Oc2ccccc2)c2cccnc2)CC1` (stereo not drawn), the EC50 in assay [1] was > 60 µM (not active); in assay [2] it was 5.42 µM (active).

As for `Cc1ccc(Nc2nnc(-c3ccc(N4CCOCC4)c([N+](=O)[O-])c3)c3ccccc23)cc1`, the CC50 in assay [3] is 10.8 µM (active).

`O=C(c1csnn1)N1CCC[C@@]2(CCN(c3ncccn3)C2)C1`: the AC50 on Cytochrome P450 1A2 was 12.6 µM (inconclusive).

For `N[C@](CC1c2ccccc2Oc2ccccc21)(C(=O)O)[C@@H]1C[C@@H]1C(=O)O`, the AC50 at Cytochrome P450 1A2 is 31.6 µM (inconclusive).

With `CCOc1ccccc1Nc1cc(C)nc2ccc(C)cc12`, the CC50 in assay [3] was 26.1 µM (active).

Take `O=c1n(Cc2ccccc2F)c2ccccc2n1Cc1ccccc1F`: the EC50 is > 120 µM (not active) in assay [4], 22 µM (active) in assay [5] and > 120 µM (not active) in assay [6].

Take `COc1ccc(CN2CCN(Cc3cc4ccccc4o3)CC2CCO)cc1C` (stereo not drawn): the results for the EC50 in assay [1] and in assay [2] were > 60 µM (not active) and 0.306 µM (active), respectively.

As to `O=C(O)CCC(=O)Nc1ccc2ccccc2c1`, at Cytochrome P450 1A2, the half-maximal activity concentration (AC50) is 0.0631 µM (inconclusive).

`O=C(/C=C/c1ccccc1)Nc1ccc2c(c1)OCCO2`: the EC50 was 10.4 µM (inconclusive) in assay [4], 10.7 µM (inconclusive) in assay [5] and 9.98 µM (inconclusive) in assay [6].

Turning to `Cc1c(C(=O)NN2CCCCC2)nn(-c2ccc(Cl)cc2Cl)c1-c1ccc(I)cc1`, the figures for the EC50 in assay [4], in assay [5] and in assay [6] were > 120 µM (not active), 11.3 µM (active) and 12.4 µM (active), respectively.

In the case of `O=C(N/N=C\c1cn(-c2ccccc2)nc1-c1ccccc1)c1ccc2c(c1)OCO2`, the AC50 on Cytochrome P450 1A2 was 3.55 µM (inconclusive).

Turning to `Cc1ccc(C)c(OCCCC(C)(C)C(=O)O)c1` [GEMFIBROZIL], on Cytochrome P450 1A2, the half-maximal activity concentration (AC50) is 12.6 µM (inconclusive).
